Where two headings read alike, the source gives them in different places.
How the values were obtained:
[1] = tested on: Dravet syndrome (DS) patients; conditions: cited from earlier work
scn1lab mutant zebrafish [2] = format: in vivo; conditions: for OCR response / bioenergetics relative to WT baseline: 40 μM dose of PDE4 inhibitor
Description: The scn1lab mutant zebrafish employed in this Experimental section are homozygous, loss-of-function mutants. To measure bioenergetics in whole, living zebrafish (further details of which may be found in Ibhazehiebo et al. (2018) Brain 141(3):744-761), zebrafish larvae (5 days post-fertilization, dpf) were seeded into 24-well islet capture microplates (Agilent) and pre-exposed to vehicle or drug for 20 minutes prior to the start of the assay. Oxygen consumption rates (OCR) were measured using the Seahorse Bioanalyzer (Agilent).
In a similar assay to that described above, scn1lab mutants are exposed to a 40 μM dose of a range of PDE4 inhibitors. […]

Scn1a mutant mice = test: Hyperthermia-induced seizures in Scn1a mutant mice; format: in vivo, mouse; conditions: for block of seizures (partial = seizure temperature changed; full = no seizure elicited): FIG. 15 comparison, pre-treatment with PDE4 inhibitor
Description: As shown in FIG. 13 (panels A and B), an example PDE4 inhibitor (AN2728) protects against hyperthermia-induced seizures in Scn1a mutant mice. In this model, a Scn1a mutant animal's core temperature is raised using an external heat source and consequently, brain temperature is raised and this leads to hyperthermic seizures. These hyperthermic seizures are thought to represent febrile seizures. In the Scn1a mutants, seizures begin around 41° C., whereas in the WT seizures are rarely detected even at temperatures as high as 43° C. […] FIG. 12B is the same data graphed differently.
A partial block in seizures is noted when the temperature required to induce a seizure is statistically different than wildtype and a full block in seizures occurs when no seizure is elicited following pre-treatment with the PDE4 inhibitor.

kcna1 mutant zebrafish = test: Bioenergetics in kcna1 mutant zebrafish (model of generalizable epilepsy and SUDEP); format: in vivo
[3] = tested on: mouse Scn1a mutant brain ex vivo slices; test: Extracellular field recordings in mouse Scn1a mutant brain ex vivo slices; conditions: AN2728, 40 μM; adult Scn1a heterozygous mutant brain slices; n=3
Description: The mouse Scn1a mutants employed in this Experimental section were heterozygous mutants (Scn1a−/− mice die early postnatally). […] In this assay, adult Scn1a mutant brains were rapidly removed and sectioned for electrophysiological assays. Here, extracellular field recordings were conducted to measure baseline electrophysiological activity, prior to the addition of PDE4 inhibitor (AN2728, 40 μM). A decrease in hyperexcitable amplitude and frequency was measured in the presence of AN2728.

scn1lab mutant zebrafish [4] = test: Electrophysiological recording of seizure-like hyperexcitability in the tectum opticum of scn1lab zebrafish; format: in vivo
Description: Briefly, 6 dpf zebrafish (WT and scn1lab mutants) were paralyzed (α-bungarotoxin, 1 mg/ml, Tocris) and embedded in agarose. The dorsal side of the zebrafish was exposed to the agarose gel surface and a glass microelectrode was placed into the tectum opticum of zebrafish and electrophysiological measurements were recorded. […] Care was taken not to disrupt the pipette or move the fish in any manner. Seizure-like activity was defined by high-frequency, large amplitude spikes, as defined elsewhere (Baraban et al, 2013). Both itcal (>1000 ms in duration) and inter-ictal (<300 ms in duration) activity was observed upon zooming in on a section of the EEG trace (data not shown), consistent with epileptiform events.

[5] = tested on: 6 Hz-induced psychomotor seizures; test: 6 Hz psychomotor seizure induction mouse model; format: in vivo
Description: To examine the acute effect of PDE4 inhibition on seizures, the 6 Hz psychomotor model that represents therapy-resistant limbic seizures was employed (White et al., 1995; Barton et al., 2001). Briefly, compounds were screened for their ability to block psychomotor seizures induced by a low-frequency (6 Hz), long-duration (3 sec) stimulus delivered through corneal electrodes. These seizures are believed to model partial seizures observed in humans. […]

[6] = after treatment with AN2728, n=6-10

## C=C(C)[C@@H]1CCC(C)=C[C@H]1c1c(O)cc(CCCCC)cc1O [CBD, cannabidiol]
[1]
  patients achieving full seizure freedom: < 5%
  patients with reduced seizure frequency: 43%

## CCOc1ccc(/C=C2\NCCc3cc(OCC)c(OCC)cc32)cc1OCC [Drotaverine, drotaverine]
scn1lab mutant zebrafish [2]
  OCR response / bioenergetics relative to WT baseline: effective in restoring bioenergetics to baseline levels

## O=C(Nc1c(Cl)cncc1Cl)c1ccc(OC(F)F)c(OCC2CC2)c1 [Roflumilast, roflumilast]
scn1lab mutant zebrafish [2]
  OCR response / bioenergetics relative to WT baseline: restored OCR response to baseline levels
Scn1a mutant mice
  block of seizures (partial = seizure temperature changed; full = no seizure elicited): partially or fully block seizures
kcna1 mutant zebrafish
  bioenergetics relative to wild-type baseline: restore bioenergetics in a kcna1 mutant zebrafish back to baseline levels

## COc1ccc(C2CNC(=O)C2)cc1OC1CCCC1 (stereo not drawn) [Rolipram, rolipram]
Scn1a mutant mice
  block of seizures (partial = seizure temperature changed; full = no seizure elicited): partially or fully block seizures
Scn1a mutant mice; rolipram, 3 mg/kg
  protection against hyperthermia-induced seizures: neuroprotective against hyperthermia-induced seizures
  temperature required to induce a seizure: raising
Scn1a mutant mice; rolipram, 3 mg/kg, from mostly 4-5 level without treatment
  severity of the seizure, Racine scale level: 3

## N#Cc1ccc(Oc2ccc3c(c2)COB3O)cc1 [AN2728, 5-(4-cyanophenoxy)-2,3-dihydro-1-hydroxy-2,1-benzoxaborole]
[3]
  hyperexcitable amplitude: decrease
  hyperexcitable frequency: decrease
scn1lab mutant zebrafish [4]; AN2728, 40 μM, 6 dpf scn1lab mutants
  seizure-like activity: blocked this seizure-like activity to baseline levels
scn1lab mutant zebrafish [4]; [6]
  peak amplitude: decrease
  seizure frequency: decrease
scn1lab mutant zebrafish [2]; AN2728 1 nM-100 nM doses, 5 dpf larvae
  OCR response relative to WT: ineffective
scn1lab mutant zebrafish [2]; AN2728 1 μM, 5 dpf larvae
  OCR response relative to WT: fully restoring OCR response to WT levels
scn1lab mutant zebrafish [2]; AN2728 10 μM, 5 dpf larvae
  OCR response relative to WT: fully restoring OCR response to WT levels
scn1lab mutant zebrafish [2]; AN2728 100 μM, 5 dpf larvae
  toxicity (drop of OCR response below mutant levels): toxic
scn1lab mutant zebrafish [2]; AN2728 dose series 1 nM-100 μM, 5 dpf larvae, 20 min pre-exposure
  restoration of bioenergetics (OCR): dose-dependent restoration of bioenergetics
[5]; dosed 30 min prior to the 6 Hz test, highest dose 300 mg/kg
  animals that responded (protected) in 6 Hz test: 1
[5]; treated two hours prior to the 6 Hz test
  animals that responded (protected) in 6 Hz test: three out of four
Scn1a mutant mice; AN2728 treatment
  animals that do not ever experience a seizure: 3
  protection against hyperthermia-induced seizures: protected against hyperthermia-induced seizures
Scn1a mutant mice; AN2728 treatment, untreated mutants seize around 41° C.
  temperature at which the remaining animals experience a seizure: ~42 °C
Scn1a mutant mice
  block of seizures (partial = seizure temperature changed; full = no seizure elicited): partially or fully block seizures

## Nc1nc(N)nc(-c2cc(Cl)ccc2Cl)n1 [Irsogladine, irsogladine]
scn1lab mutant zebrafish [2]
  OCR response / bioenergetics relative to WT baseline: effective in restoring bioenergetics to baseline levels

## COc1ccc([C@]2(C#N)CC[C@@H](C(=O)O)CC2)cc1OC1CCCC1 [Cilomilast, cilomilast]
scn1lab mutant zebrafish [2]
  OCR response / bioenergetics relative to WT baseline: restored OCR response to baseline levels

## Cn1c(=O)c2[nH]cnc2n(C)c1=O [Theophylline, theophylline]
scn1lab mutant zebrafish [2]
  OCR response / bioenergetics relative to WT baseline: effective in restoring bioenergetics to baseline levels
kcna1 mutant zebrafish
  bioenergetics relative to wild-type baseline: restore bioenergetics in a kcna1 mutant zebrafish back to baseline levels
